ChEMBL document CHEMBL3832064, “DailyMed|setid=5eda246b-ac51-46e7-b473-35937f84ed05 | GLIMEPIRIDE - glimepiride tablet|Perrigo New York Inc”
Several values for one entry are separate records, joined by “and”; a condition that tells them apart may be missing. Identical values can stand only once.

What was measured:
Type in all cases: ADME, organism-based
[1] = (§1) Evalaution of pharmacokinetic parameters for Glimepiride following single oral […] of Glimepiride tablets […] to healthy subjects and to patients with type 2 diabetes.; set-up: dose 4 mg, dose 1 mg, dose 2 mg, dose 8 mg, route oral; conditions: human, in vivo, dosed compound id 27, dosed compound name GLIMEPIRIDE, regimen Single dose, tissue Plasma
[2] = tested on: Homo sapiens; assay: as §1; set-up: dose 4 mg, dose 1 mg, dose 2 mg, dose 8 mg, route oral; conditions: in vivo, po, dosed compound id 27, dosed compound name GLIMEPIRIDE, regimen Single dose, tissue Plasma
[3] = (§2) Evalaution of pharmacokinetic parameters for Glimepiride following multiple doses of Glimepiride […] to healthy subjects and to patients with type 2 diabetes; set-up: dose 4 mg, dose 8 mg, route oral; conditions: human, in vivo, dosed compound id 27, dosed compound name GLIMEPIRIDE, regimen Multiple dose, study dosing duration 10 days, tissue Plasma
[4] = organism: Homo sapiens; assay: as §2; set-up: dose 4 mg, dose 8 mg, route oral; conditions: in vivo, po, dosed compound id 27, dosed compound name GLIMEPIRIDE, regimen Multiple dose, study dosing duration 10 days, tissue Plasma
[5] = Pharmacokinetic parameters evaluated following intravenous […] of Glimepiride […] to normal subjects.; conditions: human, in vivo, dosed compound id 27, dosed compound name GLIMEPIRIDE, tissue Plasma
[6] = dose 1-8 mg, study dosing duration 1 day

## CCC1=C(C)CN(C(=O)NCCc2ccc(S(=O)(=O)NC(=O)N[C@H]3CC[C@H](C)CC3)cc2)C1=O [GLIMEPIRIDE]
[1]; po, gender male and female, read-out: AUC(0-last)
  AUC: 339 ng·h/mL
[1]; dose 1 mg, gender male and female, route oral
  half-life: 3.1 h
[1]; dose 1-8 mg, route oral
  CL/F: 52.1 mL/min
  Tmax: 2.4 h
  Vd/F: 21.8 L
[2]; dose 1 mg, gender male and female
  t1/2: 5.3 h
[2]; [6]
  CL/F: 48.5 mL/min
  Tmax: 2.5 h
  Vd/F: 19.8 L
  t1/2: 5 h
[2]; gender male and female
  AUC(0-last): 315.2 ng·h/mL
  Cmax: 102.4 ng/mL and 103.2 ng/mL
[2]; study dosing duration 1 day
  Cmax: 352 ng/mL and 591 ng/mL
[3]; po
  Cmax: 578 ng/mL
[3]; dose 1-8 mg, route oral
  CL/F: 52.7 mL/min
  Tmax: 2.8 h
  Vd/F: 37.1 L
  half-life: 9.2 h
[4]
  Cmax: 309 ng/mL
[5]
  Vd: 8.8 L
  clearance: 47.8 mL/min
